Measured values published in PMC2834293 (Journal of medicinal chemistry, 2010).

Legend:
[1] = biological target: recombinant soluble human furin (Homo sapiens, UniProt P09958); experiment: Enzyme kinetics with furin; type: biochemical
[2] = tested on: fowl plague virus hemagglutinin cleavage in MDCK cells; type: cell-based, influenza virus A/FPV/Rostock/34 (H7N1); settings: FPV-infected MDCK cells; data not shown
[3] = Stability of stock solution in water; type: physicochemical; settings: room temperature, two weeks
[4] = tested on: fowl plague virus (FPV, Rostock strain); settings: 25 μM inhibitor, up to 72 h
furin = settings: read-out: Ki furin; cited from earlier work

Chain of recombinant soluble human furin (P09958 108-715 limits assumed): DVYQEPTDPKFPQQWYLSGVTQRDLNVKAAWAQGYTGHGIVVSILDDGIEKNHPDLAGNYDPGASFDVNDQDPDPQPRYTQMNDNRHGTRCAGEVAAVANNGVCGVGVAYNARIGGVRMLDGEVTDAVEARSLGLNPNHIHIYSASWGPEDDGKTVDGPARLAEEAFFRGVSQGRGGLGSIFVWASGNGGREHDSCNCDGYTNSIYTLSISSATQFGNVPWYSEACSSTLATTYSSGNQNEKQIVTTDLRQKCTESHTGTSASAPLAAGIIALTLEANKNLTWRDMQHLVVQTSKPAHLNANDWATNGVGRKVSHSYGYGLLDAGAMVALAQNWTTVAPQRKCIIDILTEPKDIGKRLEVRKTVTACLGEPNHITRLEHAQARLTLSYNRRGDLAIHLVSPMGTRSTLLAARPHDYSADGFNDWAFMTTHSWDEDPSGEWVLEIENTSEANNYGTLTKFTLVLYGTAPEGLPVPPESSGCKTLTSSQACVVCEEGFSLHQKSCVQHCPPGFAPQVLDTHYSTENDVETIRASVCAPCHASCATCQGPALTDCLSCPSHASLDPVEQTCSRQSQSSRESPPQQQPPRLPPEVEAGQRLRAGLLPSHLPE

Work on `N=C(N)c1ccccc1` [benzamidine, reference compound] yielded a Ki [1] of 750 µM.
In the case of `CCCCCCCCCC(=O)N[C@@H](CCCNC(=N)N)C(=O)N[C@H](C(=O)N[C@@H](CCCNC(=N)N)C(=O)NCc1ccc(C(=N)N)cc1)C(C)C` [compound 16], the “activity in the cellular HA cleavage assay compared with inhibitor 15” value [2] is reported as “Very similar results”.
For `CC(=O)N[C@@H](CCCNC(=N)N)C(=O)N[C@H](C(=O)N[C@@H](CCCNC(=N)N)C(=O)NCc1ccc(C(=N)N)cc1)C(C)C` [compound 17], the “activity in the cellular HA cleavage assay compared with inhibitor 15” value [2] was “reduced activity”.
With `CC(C)[C@H](NC(=O)[C@H](CCCNC(=N)N)NC(=O)Cc1ccccc1)C(=O)N[C@@H](CCCNC(=N)N)C(=O)NCc1ccc(C(=N)N)cc1` [compound 15, Phac-Arg-Val-Arg-4-(amidomethyl)benzamidine] the “change in HPLC elution profile on storage” value [3] was “could not detect any change”, the “viability of the cells in the presence of inhibitor” value ([4]; MDCK cells) was “not noticeably influenced” and the “delay of virus release versus untreated infected cultures” value ([4]; MOI 10^-5, MDCK cells) was “about 24 h”.
For nona-D-arginine, the Ki (furin) is given as 0.0013 µM.
For `N=C(N)c1ccc(CN)cc1` [compound 1, 4-amidinobenzylamine], the Ki [1] was 1200 µM.
